Data as given in patent publication US7629364B2, “Compounds that abrogate DNA-damage-induced cell cycle G2 checkpoint and/or augment anti-cancer activity of DNA-damaging treatments” (Canbas Co., Ltd., priority 2002, dated 2009).

Legend:
Jurkat cells = test: G2 checkpoint abrogation in bleomycin-treated Jurkat cells (flow cytometry of DNA content); format: cell-based, human; details: Jurkat cells, bleomycin 40 μg/ml plus compound 0.2-50 μg/ml, 24 hrs
Procedure: (§1) Cell culture. A human T-cell leukemia-derived cell line, Jurkat, was cultured in RPMI 1640 media (Sigma) supplemented with 10% fetal calf serum (IBL: Immuno-Biological Laboratories, Gunma, Japan) at 37° C./5% CO2. A human colon cancer-derived cell line, HCT116, was cultured in McCoy's 5A Medium Modified (Gibco BRL) and supplemented with 10% fetal calf serum at 37° C./5% CO2. Normal human peripheral blood lymphocytes were separated by Ficoll-Paque® (Pharmacia) and cultured in the presence of 0.1 μg/ml PHA and 1 μg/ml IL-2.
(§2) Cell-cycle analysis. […] Briefly, two million cells were resuspended and incubated in 300 μl Krishan's solution (0.1% Sodium citrate, 50 μg/ml PI, 20 μg/ml RNase A and 0.5% NP-40) for 1 hr at 4° C. and analyzed by flow cytometry using a FACScan™ flow cytometer (Beckton Dickinson, Mountain View, Calif.) with the CELLQuest™ program (Beckton Dickinson).
DNA of treated Jurkat cells was stained with propidium iodine, and the cell cycle status of each cell was assessed by flow cytometry.
CBDC compounds 004, 402, 403, 404, 405, 406, 407, 408, 409, 410, and 411 were tested. Cells were harvested, DNA was stained with propidium iodine, and the percentage of cells in G2/M phase (% G2/M) was determined by flow cytometry.
Activated normal T cells and leukemic T cells (Jurkat cells) were treated with agents to induce accumulation of cells at G2 or M phase, and the effect of CBDC402 on progression of cells through cell cycle checkpoints was measured. After treatments, cells were harvested, DNA was stained, and the cell cycle stage for each cell was determined by flow cytometry as described above. […] In another experiment, activated normal T cells received no treatment (control) or were treated with colchicine or a combination of […] and colchicine.

[1] = system: HCT116 human colon carcinoma cells; test: G2 checkpoint induced by various anti-cancer agents in HCT116 cells (flow cytometry); format: cell-based; details: co-incubation with CBDC004 2, 10 or 50 μM, 24 hrs
Procedure: as §1, §2
DNA was stained with propidium iodine, and the cell cycle status of each cell was assessed by flow cytometry.

COc1ccc(OC(=O)c2ccc(Cl)cc2)cc1 [CBDC004, 4-Chloro-benzoic acid 4-methoxy-phenyl ester]
abrogation of bleomycin-induced accumulation of G2/M cells (% G2/M) (Jurkat cells): abrogated the G2 cell cycle checkpoint in bleomycin-treated Jurkat cells in a dose-dependent manner | effect on G2/M accumulation induced by bleomycin, adriamycin, camptothecin or cisplatin [1]: reduced the number of cells at G2/M
